# In US6740657B2, “Aminomethyl-pyrroloquinazoline compounds as thrombin receptor antagonists” (Ortho-McNeil Pharmaceutical, Inc., priority 2001, dated 2004):
# Like-named read-outs stand apart in the source and are kept apart here.
# Assays:
# [1] = system: platelet aggregation stimulated by thrombin (gel-filtered platelets); assay: In vitro inhibition of thrombin-induced gel-filtered platelet aggregation; format: cell-based, Human; conditions: agonist thrombin; for IC50: read-out: GFP Aggr. IC50 (μM), Thr; for inhibition at 50 µM: Homo sapiens, Platelet, read-out: GFP Aggr. % Inhibition, Thr
# Experimental: (§1) In Vitro Inhibition of Thrombin-Induced Gel-Filtered Platelet Aggregation Assay
# (§2) The percentage of platelet aggregation is calculated as an increase in light transmission of compound-treated platelet concentrate vs. control-treated platelet concentrate. Human blood is obtained from drug free, normal donors in tubes containing 0.13 M sodium citrate. Platelet rich plasma (PRP) is collected by centrifugation of whole blood at 200×g for 10 min at 25° C. The PRP (5 mL) is gel filtered through Sepharose 2B (bed volume 50 mL), and the platelet count is adjusted to 2×10^7 platelets per sample. The following constituents are added to a siliconized cuvette: concentrated platelet filtrate and Tyrode's buffer (0.14 M NaCl, 0.0027 M KCl, 0.012 M NaHCO3, 0.76 mM Na2HPO4, 0.0055 M glucose, 2 mg/mL BSA and 5.0 mM HEPES@pH 7.4) in an amount equal to 350 μL, 50 μL of 20 mM calcium and 50 μL of the test compound. Aggregation is monitored in a BIODATA aggregometer for the 3 min following the addition of agonist (thrombin 50 μL of 1 unit/mL).
# (§3) Table 5 contains IC50 values (μM) or % inhibition@50 μM of the compounds against platelet aggregation stimulated (GFP Aggr.) by thrombin or TRAP-6 (Thr or TRAP-6) and IC50 values (μM) in a thrombin receptor (PAR-1) binding assay (Binding). The compounds of Table 5 correspond to those shown on Table 4.
# [2] = system: platelet aggregation stimulated by TRAP-6 (gel-filtered platelets); assay: In vitro inhibition of TRAP-6-induced gel-filtered platelet aggregation; format: cell-based, Human; conditions: for IC50: agonist TRAP-6, read-out: GFP Aggr. IC50 (μM), TRAP-6; for inhibition at 50 µM: read-out: GFP Aggr. % Inhibition, TRAP-6
# Experimental: as §1, §2, §3
# [3] = target: T1, thrombin receptor (PAR-1) (Homo sapiens, UniProt P25116); assay: In vitro thrombin receptor binding assay (CHRF membranes, tritiated 721-40); conditions: thrombin receptor (PAR-1) binding, read-out: Binding IC50 (μM), Thr.
# T1 construct: CHRF membranes (Jones, Biochim. Biophys. Acta 1992, 1136, 272) are thawed from −70° C; endogenous in cells; the full cell line name is own knowledge
# T1 sequence (P25116 22-425): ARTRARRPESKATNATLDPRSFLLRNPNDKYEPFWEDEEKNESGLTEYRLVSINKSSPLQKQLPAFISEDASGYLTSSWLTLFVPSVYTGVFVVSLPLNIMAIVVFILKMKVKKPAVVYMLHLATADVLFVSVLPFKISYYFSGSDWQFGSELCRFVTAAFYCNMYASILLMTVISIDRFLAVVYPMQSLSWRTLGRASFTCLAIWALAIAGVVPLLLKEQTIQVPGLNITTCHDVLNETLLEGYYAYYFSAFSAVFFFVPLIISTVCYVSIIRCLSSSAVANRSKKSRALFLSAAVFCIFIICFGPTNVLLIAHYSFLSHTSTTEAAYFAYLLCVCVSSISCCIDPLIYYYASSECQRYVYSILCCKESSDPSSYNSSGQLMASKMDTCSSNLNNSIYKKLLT
# Experimental: In Vitro Thrombin Receptor Binding Assay
# CHRF membranes (Jones, Biochim. Biophys. Acta 1992, 1136, 272) are thawed from −70° C., centrifuged at maximum speed for 5 min, washed twice with binding buffer (50 mM HEPES containing 5 mM MgCl2 and 0.1% BSA), and re-suspended in binding buffer (25 μg/[…]). 100 μL of membranes are added to the 24-Wallac plates and delivered to the Tomtech apparatus. In a typical experiment, 6 μL of samples (from a 125 μg/mL intermediary plate, 20% DMSO) and 44 μL buffer are delivered to the plates (final conc. of compounds is 3.7 μg/mL, 0.6% DMSO). Similarly, 6 μL 20% DMSO and 44 μL buffer are delivered to both column 1 (NSB) and column 12 (TB). 10 μL Ser-pFPhe-hArg-Leu-hArg-Lys-Tyr-NH2 (721-40; 500 μM in deionized water) is added to column 1.50 μL tritiated 721-40 (specific activity 46 Ci/mmol) is added to all the wells. The plates are mixed well for 20 seconds, incubated for 30 min, and then harvested with 10 mM HEPES/138 mM NaCl using the Skatron harvester. The filters (GF/C Brandel FPXLR 296) are presoaked 3 h in 0.5% polyethylenimine in HEPES/0.1M N-acetylglucosamine) are set in saran wrap and dried for 3 min in the microwave, and placed in sample bags (Wallac 1450-432). 4.5 mL scintillation fluid (Wallac, Betaplate Scint 1205-440) is added. The bags are sealed, placed in filter cassettes (Wallac 1450-104), and analyzed on the microbeta counter. […]
# [4] = Homo sapiens, Platelet, agonist TRAP-6, % inhibition @ 50 μM
molecule,measurement,setting,value
"CN(C)Cc1cn(Cc2c(Cl)cccc2Cl)c2ccc3nc(N[C@@H](Cc4ccccc4)C(=O)N[C@@H](CCN)C(=O)NCc4ccccc4)nc(N)c3c12 [Compound 2, α-[[1-amino-7-[(2,6-dichlorophenyl)methyl]-9-[(dimethylamino)methyl]-7H-pyrrolo[3,2-f]quinazolin-3-yl]amino]-N-[(1S)-3-amino-1-[[(phenylmethyl)amino]carbonyl]propyl]-(α^1S)-benzenepropanamide]",IC50,[1],13 µM
same,IC50,[2],3 µM
"CN(C)Cc1cn(Cc2c(Cl)cccc2Cl)c2ccc3nc(N(C)C)nc(N)c3c12 [Compound 3, 7-[(2,6-dichlorophenyl)methyl]-9-[(dimethylamino)methyl]-N^3,N^3-dimethyl-7H-pyrrolo[3,2-f]quinazoline-1,3-diamine]",inhibition at 50 µM,[1]; % inhibition @ 50 μM,27%
same,inhibition at 50 µM,[2]; [4],40%
"CN(C)Cc1cn(Cc2c(Cl)cccc2Cl)c2ccc3nc(NC4CC4)ncc3c12 [Compound 4, 3-(cyclopropylamino)-7-[(2,6-dichlorophenyl)methyl]-N,N-dimethyl-7H-pyrrolo[3,2-f]quinazoline-9-methanamine]",inhibition at 50 µM,[1]; % inhibition @ 50 μM,30%
same,inhibition at 50 µM,[2]; [4],20%
"Nc1nc(Cl)nc2ccc3c(c(CN4CCCC4)cn3Cc3c(Cl)cccc3Cl)c12 [Compound 5, 3-chloro-7-[(2,6-dichlorophenyl)methyl]-9-(1-pyrrolidinylmethyl)-7H-pyrrolo[3,2-f]quinazolin-1-amine]","GFP Aggr. % Inhibition, Thr",[1]; % inhibition @ 50 μM,16%
same,"GFP Aggr. % Inhibition, TRAP-6","[2]; agonist TRAP-6, % inhibition @ 50 μM",32%
"COc1nc(Cl)nc2ccc3c(c(CN(C)C)cn3Cc3c(Cl)cccc3Cl)c12 [Compound 6, 3-chloro-7-[(2,6-dichlorophenyl)methyl]-1-methoxy-N,N-dimethyl-7H-pyrrolo[3,2-f]quinazoline-9-methanamine]",inhibition at 50 µM,[1]; % inhibition @ 50 μM,40%
same,IC50,"[2]; Homo sapiens, Platelet",31 µM
"CN(C)Cc1cn(Cc2c(Cl)cccc2Cl)c2ccc3nc(Cl)nc(N)c3c12 [Compound 7, 1-amino-3-chloro-7-[(2,6-dichlorophenyl)methyl]-N,N-dimethyl-7H-pyrrolo[3,2-f]quinazoline-9-methanamine]",inhibition at 50 µM,[1]; % inhibition @ 50 μM,14%
same,inhibition at 50 µM,[2]; [4],3%
"N^3-cyclopropyl-7-[(2,6-dichlorophenyl)methyl]-9-[(dimethylamino)methyl]-7H-pyrrolo[3,2-f]quinazoline-1,3-diamine [Compound 1]",IC50,[3],9.6 µM
same,IC50,[1],21 µM
same,IC50,[2],13 µM
